# Measurements reported in ChEMBL document CHEMBL3885881, “DrugMatrix”.
# Organism: Rattus norvegicus
# Assay type: toxicity, organism-based, Sprague-Dawley
# Details: in vivo, po, route oral GAVAGE, […]; for ABSOLUTE EOSINOPHIL / ABSOLUTE LYMPHOCYTE / ABSOLUTE MONOCYTE / ABSOLUTE SEGMENTED NEUTROPHIL / BASOPHIL / EOSINOPHIL / ERYTHROCYTE COUNT / HEMATOCRIT / HEMOGLOBIN / LEUKOCYTE COUNT / LYMPHOCYTE / MEAN CORPUSCULAR HEMOGLOBIN / MEAN CORPUSCULAR HEMOGLOBIN CONCENTRATION / MEAN CORPUSCULAR VOLUME / MONOCYTE / NEUTROPHIL / NUCLEATED RED BLOOD CELLS / PLATELET COUNT: tissue Blood; for ALANINE AMINOTRANSFERASE / ALBUMIN / ALKALINE PHOSPHATASE / ASPARTATE AMINOTRANSFERASE / BLOOD UREA NITROGEN / CARBON DIOXIDE / CHLORIDE / CHOLESTEROL / CREATINE PHOSPHOKINASE / CREATININE / GLUCOSE / LACTATE DEHYDROGENASE / LIPASE / PHOSPHORUS / POTASSIUM / SODIUM / TOTAL BILIRUBIN / TOTAL PROTEIN / URIC ACID: tissue Plasma
# [1] = 130 mg/kg, 24 h, dose level Low, time 1 day
# [2] = 500 mg/kg, 6 h, dose level High, time 0.25 day
# [3] = 500 mg/kg, 24 h, dose level High, time 1 day
# Description: DrugMatrix - Regimen: Single
smiles,measurement,setting,value
CCOC(=O)C(C)(C)Oc1ccc(Cl)cc1 [CLOFIBRATE],ABSOLUTE EOSINOPHIL,[1],55.33 CELLS/uL
same,ABSOLUTE LYMPHOCYTE,[1],15484.17 CELLS/uL
same,ABSOLUTE MONOCYTE,[1],278.5 CELLS/uL
same,ABSOLUTE SEGMENTED NEUTROPHIL,[1],965.33 CELLS/uL
same,BASOPHIL,[1],0%
same,EOSINOPHIL,[1],0.33%
same,ERYTHROCYTE COUNT,[1],5.03 x10E6/uL
same,HEMATOCRIT,[1],32.6%
same,HEMOGLOBIN,[1],13.25 G/DL
same,LEUKOCYTE COUNT,[1],16.78 x10E3/uL
same,LYMPHOCYTE,[1],92.17%
same,MEAN CORPUSCULAR HEMOGLOBIN,[1],26.33 pg
same,MEAN CORPUSCULAR HEMOGLOBIN CONCENTRATION,[1],40.65 G/DL
same,MEAN CORPUSCULAR VOLUME,[1],64.78 fL
same,MONOCYTE,[1],1.67%
same,NEUTROPHIL,[1],5.83%
same,NUCLEATED RED BLOOD CELLS,[1],0 /100WBC
same,PLATELET COUNT,[1],862.83 x10E3/uL
same,ALANINE AMINOTRANSFERASE,[1],67 u/L
same,ALBUMIN,[1],4.33 G/DL
same,ALKALINE PHOSPHATASE,[1],318.17 u/L
same,ASPARTATE AMINOTRANSFERASE,[1],75.17 u/L
same,BLOOD UREA NITROGEN,[1],12.67 mg/dL
same,CARBON DIOXIDE,[1],32 mmol/L
same,CHLORIDE,[1],100 MEQ/L
same,CHOLESTEROL,[1],47.33 mg/dL
same,CREATINE PHOSPHOKINASE,[1],215.5 u/L
same,CREATININE,[1],0.16 mg/dL
same,GLUCOSE,[1],132.67 mg/dL
same,LACTATE DEHYDROGENASE,[1],108.83 u/L
same,LIPASE,[1],10.5 u/L
same,PHOSPHORUS,[1],9.12 mg/dL
same,POTASSIUM,[1],6.21 MEQ/L
same,SODIUM,[1],142.78 MEQ/L
same,TOTAL BILIRUBIN,[1],0.17 mg/dL
same,TOTAL PROTEIN,[1],5.58 G/DL
same,URIC ACID,[1],1.07 mg/dL
same,ABSOLUTE EOSINOPHIL,[2],41.33 CELLS/uL
same,ABSOLUTE LYMPHOCYTE,[2],7521 CELLS/uL
same,ABSOLUTE MONOCYTE,[2],204.83 CELLS/uL
same,ABSOLUTE SEGMENTED NEUTROPHIL,[2],899.5 CELLS/uL
same,BASOPHIL,[2],0%
same,EOSINOPHIL,[2],0.5%
same,ERYTHROCYTE COUNT,[2],5.56 x10E6/uL
same,HEMATOCRIT,[2],35.4%
same,HEMOGLOBIN,[2],13.87 G/DL
same,LEUKOCYTE COUNT,[2],8.67 x10E3/uL
same,LYMPHOCYTE,[2],86.5%
same,MEAN CORPUSCULAR HEMOGLOBIN,[2],24.97 pg
same,MEAN CORPUSCULAR HEMOGLOBIN CONCENTRATION,[2],39.18 G/DL
same,MEAN CORPUSCULAR VOLUME,[2],63.73 fL
same,MONOCYTE,[2],2.33%
same,NEUTROPHIL,[2],10.67%
same,NUCLEATED RED BLOOD CELLS,[2],0 /100WBC
same,PLATELET COUNT,[2],1195.5 x10E3/uL
same,ALANINE AMINOTRANSFERASE,[2],52.5 u/L
same,ALBUMIN,[2],4.53 G/DL
same,ALKALINE PHOSPHATASE,[2],309.5 u/L
same,ASPARTATE AMINOTRANSFERASE,[2],94.5 u/L
same,BLOOD UREA NITROGEN,[2],9.33 mg/dL
same,CARBON DIOXIDE,[2],22.5 mmol/L
same,CHLORIDE,[2],100.67 MEQ/L
same,CHOLESTEROL,[2],65.33 mg/dL
same,CREATINE PHOSPHOKINASE,[2],333.17 u/L
same,CREATININE,[2],0.16 mg/dL
same,GLUCOSE,[2],130.33 mg/dL
same,LACTATE DEHYDROGENASE,[2],146.83 u/L
same,LIPASE,[2],9.83 u/L
same,PHOSPHORUS,[2],11.68 mg/dL
same,POTASSIUM,[2],6.42 MEQ/L
same,SODIUM,[2],143.4 MEQ/L
same,TOTAL BILIRUBIN,[2],0.18 mg/dL
same,TOTAL PROTEIN,[2],6 G/DL
same,URIC ACID,[2],1.37 mg/dL
same,ABSOLUTE EOSINOPHIL,[3],42 CELLS/uL
same,ABSOLUTE LYMPHOCYTE,[3],10953.5 CELLS/uL
same,ABSOLUTE MONOCYTE,[3],221.67 CELLS/uL
same,ABSOLUTE SEGMENTED NEUTROPHIL,[3],1432.83 CELLS/uL
same,BASOPHIL,[3],0%
same,EOSINOPHIL,[3],0.33%
same,ERYTHROCYTE COUNT,[3],5.6 x10E6/uL
same,HEMATOCRIT,[3],35.22%
same,HEMOGLOBIN,[3],14.02 G/DL
same,LEUKOCYTE COUNT,[3],12.65 x10E3/uL
same,LYMPHOCYTE,[3],86.83%
same,MEAN CORPUSCULAR HEMOGLOBIN,[3],25.02 pg
same,MEAN CORPUSCULAR HEMOGLOBIN CONCENTRATION,[3],39.8 G/DL
same,MEAN CORPUSCULAR VOLUME,[3],62.93 fL
same,MONOCYTE,[3],1.67%
same,NEUTROPHIL,[3],11.17%
same,NUCLEATED RED BLOOD CELLS,[3],0 /100WBC
same,PLATELET COUNT,[3],1112.33 x10E3/uL
same,ALANINE AMINOTRANSFERASE,[3],93.33 u/L
same,ALBUMIN,[3],4.55 G/DL
same,ALKALINE PHOSPHATASE,[3],411.33 u/L
same,ASPARTATE AMINOTRANSFERASE,[3],162.83 u/L
same,BLOOD UREA NITROGEN,[3],11.67 mg/dL
same,CARBON DIOXIDE,[3],33.5 mmol/L
same,CHLORIDE,[3],97.83 MEQ/L
same,CHOLESTEROL,[3],34.83 mg/dL
same,CREATINE PHOSPHOKINASE,[3],245.67 u/L
same,CREATININE,[3],0.19 mg/dL
same,GLUCOSE,[3],137.17 mg/dL
same,LACTATE DEHYDROGENASE,[3],114.17 u/L
same,LIPASE,[3],9.83 u/L
same,PHOSPHORUS,[3],10.23 mg/dL
same,POTASSIUM,[3],6.67 MEQ/L
same,SODIUM,[3],143.3 MEQ/L
same,TOTAL BILIRUBIN,[3],0.25 mg/dL
same,TOTAL PROTEIN,[3],5.77 G/DL
same,URIC ACID,[3],1.18 mg/dL
